Test results published in patent US7642261B2, “Use of 1-[4-(5-cyanoindol-3-yl)butyl]-4-(2-carbamoyl-benzofuran-5-yl)-piperazine and its physiologically acceptable salts” (Merck Patent GmbH, priority 2002, dated 2010).

Experiments:
Type in all cases: in vivo
[1] = Abdominal constriction (writhing) test; conditions: 30 mg/kg p.c.
Description: Rapid procedures to test pain-relieving properties of drugs are the abdominal constriction (writhing) test according to E. Siegmund et all., Proc. Soc. Exp. Biol. Med. 1957, 95: 729-731 and the intradermal formalin test according to S. Hunskaar et al., J. Neurosci. Meth. 1985, 14: 69-76. For example, 1-[4-(5-cyanoindol-3-y1)butyl]-4-(2-carbamoyl-benzofuran-5-yl)-piperazine hydrochloride at 30 mg/kg p.c. reduced abdominal contrictions by 82%, and 10 mg/kg p.o. reduced the formalin-induced pain response by 79%.

[2] = Development of body weight, dogs
From the text: (§1) Thus, differential effects on body weight indicating therapeutic efficacy in either obesity or anorexia depending on the dose range used are evident.

rats = test: Social Interaction Test (model for social phobia); conditions: pairs of unfamiliar rats, oral dose of 10 mg/kg, 300 sec total time; vehicle 116 sec
Description: A model for social phobia is the Social Interaction Test according to S. File, J. R. G Hyde, J. Pharm. Pharmacol. 1977, 29: 735-738. Pairs of rats not familiar with each other are placed in an open test box brightly lit (aversive condition), and the number and duration of social contacts during a 5 min test session are recorded.
1-[4-(5-cyanoindol-3-yl)butyl]-4-(2-carbamoyl-benzofuran-5-yl)-piperazine or one of its physiologically acceptable salts, in particular 1-[4-(5-cyanoindol-3-yl)butyl]-4-(2-carbamoyl-benzofuran-5-yl)-piperazine hydrochloride, increase the time spent in social interaction. For example, for an oral dose of 10 mg/kg of 1-[4-(5-cyanoindol-3-yl)butyl]-4-(2-carbamoyl-benzofuran-5-yl)-piperazine hydrochloride the pairs of rats unfamiliar to each other spend 144 sec of the 300 sec of total time with social interaction compared to 116 sec for the vehicle treated pairs of rats.

aged rats = test: Morris Water Maze in aged rats; conditions: old rats, tested at day 7, untreated old rats 95 sec, vehicle treated young rats 76 sec
From the text: Typical models for dementia, Alzheimer's disease and multi-infarct are the Passive Avoidance test in rats [S. D. Glick and B. Zimmerberg, Behav. Biol., 1972, 7: 245-254; D. K. Rush, Behav. Neural Biol., 1988, 50: 255-274] and the testing of memory functions in the Morris Water Maze in aged rats [R. Morris, J. Neurosci. Methods, 1984, 11: 47-60, F. H. Gage et al. Neurobiol. Aging. 1984, 5: 43-48].
The Morris Water Maze consists of a circular water tank (150 cm in diameter) filled with water with an escape platform (15 cm in diameter) 18 cm from the periphery beneath the surface of the water. The water is made opaque rendering the platform invisible. Rats placed in the tank swim around and find the hidden platform accidently after a certain time (latency), and the latency to find the platform is taken as measure. When given further training session to find the platform, rats show reduced latencies from day to day, i.e. remember (learn) the location of the platform. But compared to young rats, aged rats perform less well in learning over days reflecting impaired learning capacity. Drugs effective for dementia and particularly Alzheimers disease improve the earning capacity of aged rats.
1-[4-(5-cyanoindol-3-yl)butyl]-4-(2-carbamoyl-benzofuran-5-yl)-piperazine hydrochloride is administered to old rats at oral doses of 1 and 3 mg/kg every day. […]

[3] = Cumulative Food Intake / development of body weight, rats or mice; conditions: free access to food
Description: A typical animal model for eating disorders and/or obesity and/or anorexia is named Cumulative Food Intake according to H. C. Jackson, A. M, Needham, L. J. Hutchins, S. E. Mazurkiewicz, D. J. Heal, Br. J. Pharmacol., 1997, 121: 1758-1762, which can be utilized in various species. Usually, rats or mice are given free access to food, and the development of body weight is measured over time. The test can be performed in both starved and non-starved rats or mice. Moreover, chronic or acute administration of a medication can be investigated.
as §1

mice = test: Light-Dark Choice Test (model for generalized anxiety disorders); conditions: oral dose of 10 mg/kg, 5 min
Description: A typical model for generalized anxiety disorders is the Light-Dark Chaise Test […] according to J. N. Crawly, Pharmacol. Biochem Behav. 1981,15: 695-699.
The light-dark choise apparatus consists of two connected boxes with one box darkened and the other one highly illuminated. A mouse is placed in one box, and the time spent in lit box and the number of transitions between boxes are measured over a period of 5 min. Normal mice only have low numbers of entries to the lit compartment and spent most time in the dark compartment.
1-[4-(5-cyanoindol-3-yl)butyl]-4-(2-carbamoyl-benzofuran-5-yl)-piperazine or one of its physiologically acceptable salts, in particular 1-[4-(5-cyanoindol-3-yl)butyl]-4-(2-carbamoyl-benzofuran-5-yl)-piperazine hydrochloride, following oral application dose -dependently increase the number of transitions and time spent in lit compartment. For example, an oral dose of 10 mg/kg of 1-[4-(5-cyanoindol-3-yl)butyl]-4-(2-carbamoyl-benzofuran-5-yl)-piperazine hydrochloride increased the number of transitions by 73% and time spent in lit compartment by 31%.

Cl.N#Cc1ccc2[nH]cc(CCCCN3CCN(c4ccc5oc(C(N)=O)cc5c4)CC3)c2c1 [1-[4-(5-cyanoindol-3-yl)butyl]-4-(2-carbamoyl-benzofuran-5-yl)-piperazine hydrochloride]
reduction of abdominal constrictions [1]: 82%
development of body weight [2]: reduced development of body weight
time spent in social interaction (rats): 144 s
latency to find the platform in the first attempt (aged rats; oral 1 mg/kg every day): 77 s
latency to find the platform in the first attempt (aged rats; oral 3 mg/kg every day): 73 s
body weight at lower doses ([3]; orally for 4 consecutive days, lower doses of up to 50 mg/kg): increased body weight
development of body weight at higher doses ([3]; orally up to 360 mg/kg for 4 consecutive days, higher doses): reduced development of body weight
increase of number of transitions (mice): 73%
increase of time spent in lit compartment (mice): 31%
